From patent publication US10881698B2, “Diagnosis and treatment for respiratory tract diseases” (THE TRUSTEES OF THE UNIVERSITY OF PENNSYLVANIA, priority 2012, dated 2021)
Substitutions are numbered along the chain they refer to. Like-named read-outs stand apart in the source and are kept apart here. Blank lines part the entries; values can stand above or below the compound they belong to.

Tests used:
T2R38 [1] = biological target: T1, T2R38 (Homo sapiens, UniProt P59533, A49P/I296V); assay: DAF-FM imaging of NO production in human sinonasal ALI cultures; type: cell-based
T1 construct: T2R38 is expressed in human upper airway epithelium; endogenous in cells; host or cells: primary human sinonasal epithelial cells, air-liquid interface cultures from surgical patients
T1 sequence (P59533 1-333 A49P/I296V): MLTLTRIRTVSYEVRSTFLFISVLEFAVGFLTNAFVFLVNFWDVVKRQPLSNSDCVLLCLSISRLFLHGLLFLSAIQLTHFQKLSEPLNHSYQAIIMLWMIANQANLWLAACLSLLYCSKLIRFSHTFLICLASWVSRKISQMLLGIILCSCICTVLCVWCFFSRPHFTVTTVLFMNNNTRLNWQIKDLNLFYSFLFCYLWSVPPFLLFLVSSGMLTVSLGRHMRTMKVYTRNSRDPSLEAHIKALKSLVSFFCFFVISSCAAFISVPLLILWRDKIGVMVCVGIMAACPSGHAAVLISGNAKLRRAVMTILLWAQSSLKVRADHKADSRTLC

nasal epithelial cells = assay: Fluo-4 calcium signaling with denatonium in nasal epithelial cells (sinonasal ALI cultures); type: cell-based, human; details: for Effect on denatonium induced calcium signaling: 2 mM sucrose or 1 mM sucralose
sinonasal ALI cultures = type: cell-based, human
T2R38 [2] = assay: DAF-FM imaging of NO production in human sinonasal ALI cultures; type: cell-based
T2R38 [3] = biological target: T1, T2R38; assay: Fluo-4 Ca2+ imaging in primary human sinonasal ALI cultures; type: cell-based; details: for Average peak Fluo-4 F/Fo after 5 min stimulation with C6HSL: 200 μM C6HSL
T2R38 [4] = biological target: T2, T2R38 (Homo sapiens, UniProt P59533, A262V); assay: as above; type: cell-based; details: AVI/AVI
T2 construct: T2R38 is expressed in human upper airway epithelium; endogenous in cells; host or cells: primary human sinonasal epithelial cells, air-liquid interface cultures from surgical patients
T2 sequence (P59533 1-333 A262V): T1 sequence (P59533 1-333 A49P/I296V) with P49A, A262V, V296I

Pseudomonas aeruginosa = assay: Kill assay with ASL from stimulated sinonasal ALI cultures (CFU plating); type: cell-based
AVI-TAS2R38 = biological target: T3, AVI-TAS2R38 (Homo sapiens, UniProt P59533, A262V); assay: Fluo-4 calcium mobilization in HEK293 cells expressing hTAS2R38 (AVI) and Gα16gustducin44; type: cell-based; details: 10 mM; AVI variant
T3 construct: first 45 amino acids of rat SSTR-3 (N); host or cells: HEK293 (peakRapid), transient transfection, pcDNA3.1(+)
T3 sequence (P59533 1-333 A262V): T1 sequence (P59533 1-333 A49P/I296V) with P49A, A262V, V296I

PAV-TAS2R38 = biological target: T4, PAV-TAS2R38 (Homo sapiens, UniProt P59533, A49P/I296V); assay: Fluo-4 calcium mobilization in HEK293 cells expressing hTAS2R38 (PAV) and Gα16gustducin44; type: cell-based; details: 10 mM; PAV variant
T4 construct: first 45 amino acids of rat SSTR-3 (N); host or cells: HEK293 (peakRapid), transient transfection, pcDNA3.1(+)
T4 sequence (P59533 1-333 A49P/I296V): T1 sequence (P59533 1-333 A49P/I296V)

T2R38 [5] = assay: Fluo-4 Ca2+ imaging in primary human sinonasal ALI cultures; type: cell-based
T2R38 [6] = biological target: T2, T2R38; assay: DAF-FM imaging of NO production in human sinonasal ALI cultures; type: cell-based

Compound: CCCc1cc(=O)[nH]c(=S)[nH]1 [PROP, 6-n-propylthiouracil]
Intracellular DAF-FM fluorescence (NO production) (T2R38 [1]; apical application, PAV/PAV (taster) cells): stimulated an increase in intracellular DAF-FM fluorescence

Compound: OC[C@H]1O[C@H](O[C@]2(CCl)O[C@H](CCl)[C@@H](O)[C@@H]2O)[C@H](O)[C@@H](O)[C@H]1Cl [sucralose]
Effect on denatonium induced calcium signaling (nasal epithelial cells): inhibits denatonium induced calcium signaling

Compound: COC(=O)[C@@]1(OC)C[C@H]2O[C@]1(C)n1c3ccccc3c3c4c(c5c6ccccc6n2c5c31)C(=O)N(C)C4 [KT5823]
Effect on HSL-stimulated CBF increase (sinonasal ALI cultures): blocked

Compound: OC[C@H]1O[C@@](CO)(O[C@H]2O[C@H](CO)[C@@H](O)[C@H](O)[C@H]2O)[C@@H](O)[C@@H]1O [sucrose]
Effect on denatonium induced calcium signaling (nasal epithelial cells): inhibits denatonium induced calcium signaling

Compound: CC(=O)NC(C(=O)O)C(C)(C)SN=O (racemic) [SNAP, S-Nitroso-N-Acetyl-D,L-Penicillamine]
DAF-FM responses between the genotypes (control stimuli) (T2R38 [2]; SNAP 100 μM, ionomycin): did not yield differential DAF-FM responses between the genotypes

Compound: CC(C)[C@]12CC(=O)[C@H](C)[C@H]1C2 [thujone]
Ca2+ responses in sinonasal ALI cultures (nasal epithelial cells; non-T2R38 bitter agonists): not | NO production with non-T2R38 bitter ligands (T2R38 [1]): did not stimulate NO production

Compound: CCCCCC(=O)N[C@H]1CCOC1=O [C6HSL, N-Hexanoyl-L-homoserine lactone]
Average peak Fluo-4 F/Fo after 5 min stimulation with C6HSL (T2R38 [3]; PAV/PAV): 1.52±0.074 | Average peak Fluo-4 F/Fo after 5 min stimulation with C6HSL (T2R38 [3]; PAV/PAV+U73122): 1.10±0.09 | Average peak Fluo-4 F/Fo after 5 min stimulation with C6HSL (T2R38 [4]; 200 μM C6HSL): 1.21±0.09

Compound: COc1ccc(OC(C)C(=O)O)cc1 (stereo not shown) [lactisole]
Effect on sucrose/sucralose inhibition of denatonium calcium signaling (nasal epithelial cells; sweet receptor antagonist): substantially eliminates the inhibition | Effect on glucose-mediated inhibition of bacterial kill (Pseudomonas aeruginosa; lactisole 5 mM): reduced or reversed the glucose-mediated inhibition of bacterial kill

Peak Fluo-4 fluorescence (ΔF/F) (AVI-TAS2R38): 3±1% | Peak Fluo-4 fluorescence (ΔF/F) (PAV-TAS2R38): 1.4±0.3%
Compound: OCc1ccccc1O[C@@H]1O[C@H](CO)[C@@H](O)[C@H](O)[C@H]1O [salicin]

Compound: sodium thiocyanate [NaSCN]
F/Fo after stimulation with 5 mM NaSCN (T2R38 [5]; +L-NAME (50 μM)): 1.24±0.07 | F/Fo after stimulation with 5 mM NaSCN (T2R38 [5]; control (no L-NAME)): 1.33±0.08 | DAF-FM fluorescence increase after 5 min NaSCN (T2R38 [1]): 202±38 units | DAF-FM fluorescence increase after 5 min NaSCN (T2R38 [6]): 61±23 units

Compound: COC(=O)[C@H](N)CCCN=C(N)N[N+](=O)[O-] [D-NAME]
Effect on HSL-stimulated CBF increase (sinonasal ALI cultures): not

Compound: C[C@H](CCC(=O)O)C[C@H](C)C[C@H](C)C(=O)/C=C(\O)[C@H](C)C[C@H](C)C/C=C/[C@@H](C)[C@@H](O)[C@@H](C)[C@@H](O)C[C@@H]1CC[C@@](C)([C@H]2CC[C@@](C)([C@@H](C)O)O2)O1 [ionomycin]
DAF-FM responses between the genotypes (control stimuli) (T2R38 [2]): did not yield differential DAF-FM responses between the genotypes

Compound: Nc1ncnc2c1ncn2[C@@H]1O[C@H](COP(=O)(O)OP(=O)(O)OP(=O)(O)O)[C@@H](O)[C@H]1O [ATP]
Peak Fluo-4 F/Fo during 10 μM ATP stimulation (T2R38 [3]; PAV/PAV): 2.96±0.08 | Peak Fluo-4 F/Fo during 10 μM ATP stimulation (T2R38 [3]; PAV/PAV+U73122): 2.82±0.1 | Peak F/Fo during stimulation with 1 μM ATP (T2R38 [5]; L-NAME (50 μM)): 2.0±0.26 | Peak F/Fo during stimulation with 1 μM ATP (T2R38 [5]; control (no L-NAME)): 1.9±0.21 | ATP-induced Ca2+ responses versus TAS2R38 genotype (T2R38 [5]; ATP 1 μM, PAV/PAV, PAV/AVI, AVI/AVI cultures): did not correlate with TAS2R38 genotype | Peak Fluo-4 F/Fo during 10 μM ATP stimulation (T2R38 [4]; 10 μM ATP): 2.90±0.09 | Peak CBF after ATP stimulation between genotypes (sinonasal ALI cultures): not significantly different between cultures of different genotypes | Bactericidal response on stimulation of cells (Pseudomonas aeruginosa; ATP stimulation): no bactericidal response was observed
